Source: patent US20200001302A1, “MICROFLUIDIC DEVICES, SYSTEMS, INFRASTRUCTURES, USES THEREOF AND METHODS FOR GENETIC ENGINEERING USING SAME” (VALORBEC, SOCIÉTÉ EN COMMANDITE, priority 2018, published 2020)
Counter-ions that a name gives are not always drawn. Like-named read-outs stand apart in the source and are kept apart here.

Columns and labels:
[1] = test system: RFP gene downstream of a T7 promoter in E. coli; test: IPTG inducer concentration optimization, RFP expression dose-response (AIMS and macro-scale); assay type: cell-based; conditions: after four hours
Procedure: For inducer concentration optimization carried out in the macroscale, starter cultures with a RFP plasmid were prepared at OD 0.1 from overnight inoculations. The cultures were grown at 37° C. with shaking and were induced upon reaching OD 0.4. 45 mL of the culture was induced at 200 micromolar and diluted with fresh media to generate the following IPTG concentrations: 200, 133.3, 88.9, 59.3, 40, 26.7, 17.8, and 11.9 micromolar. These sub-cultures were prepared in triplicates along with a non-induced control and were induced at 37° C. and shaken for 4 hours. After induction, 200 microliters of each culture were loaded onto a 96-well plate and fluorescence at 612 nm was measured with 582 nm excitation on a TECAN Infinite M200 plate reader (Mannedorf, Switzerland) with the settings: gain of 75, 25 flashes and 20 microseconds integration time. The fluorescence intensity with increasing IPTG concentration was plotted on a logarithmic scale to generate a dose-response curve.
In the inducer concentration optimization program, three unit droplets of 1.42 microliters containing transformed RFP-cells were dispensed from the culture region and mixed with 0.3 microliters of 3.24 mM IPTG. This droplet was actuated to an empty reservoir and one daughter droplet was split from this reservoir and actuated to the incubation region. […]

[2] = test system: H1299 cells; test: On-chip (ACE digital microfluidic) sorafenib dose-response, cell viability by Calcein-AM cell count; assay type: cell-based, Human; conditions: for IC50: Homo sapiens
Excerpt: Similarly, in the microscale, the transfection protocol is followed for seeding cells and the 7-step protocol for transfection of the pCRISPR plasmid containing sgRNA targeting eGFP or Raf-1. The standard step 7 was replaced with step 7a and step 7b. In step 7a, sorafenib tosylate in complete media was actively dispensed into unit droplets and then diluted in liquid media to form six different concentrations (0 micromolar, 7.5 micromolar, 15 micromolar, 30 micromolar, 60 micromolar, 120 micromolar) of which one droplet (0.7 microliters) was used to passively dispense onto each hydrophilic spot and the other droplet was saved for future dilutions. After all cells were interrogated with the drugs, they were incubated for two days. In step 7b, six unit droplets of 5 micromolar Calcein-AM violet stain were passively dispensed to the cells and incubated for 30 min in which images were taken to count the cells using a single module imaging pipeline. Calcein-stained image was smoothed with a Gaussian filter (G, sigma=1) and used the Otsu Global thresholding method to detect objects with diameters of 20-100 pixel units (two classes, threshold correction factor=1.25). Neighboring pixels are grouped into objects and undesired clumped objects (e.g., two close overlapping objects) are declumped using intensity segregation. The counted cells were normalized to the control (e.g., cell interrogated with no drugs). All curves were fit with a sigmoid function and probed for statistical significance using an F-test in the linear region.
To verify the effects of targeting RAF1 by genome editing and enzymatic inhibition, H1299 cells were cultured, edited, assayed, and analyzed on the ACE platform following procedures for measuring transfection and knockout efficiencies. Images of the lung cancer cells that are transfected with and without pCRISPR targeting RAF1 and treated with the sorafenib inhibitor are analysed using the standardized imaging pipeline (FIG. 39B, FIG. 51). […] The effects of RAF protein kinase inhibitor sorafenib tosylate with and without CRISPR-mediated RAF1 targeting were examined.

[3] = test system: H1299 cells; test: Cell viability over 7 days after RAF1 gene editing and sorafenib tosylate (FIG. 50); assay type: cell-based, Human; conditions: cells with both pCRISPR targeting RAF1 and 15 micromolar sorafenib tosylate added on day 2; after day 4
Procedure: MAPK/ERK pathway experiments. The MAPK/ERK pathway experiments used two key components: CRISPR-Cas9 genomic disruption of Raf1 and drug inhibition using sorafenib tosylate. In the macroscale, 0.75×10^5 cells/mL of H1299 cells were seeded on day 0 in 24-well plates. 600 ng of the pCRISPR plasmid targeting eGFP (control) or RAF1 was applied to the wells containing the cells on day 1. On day 3, drug conditions were added at different concentrations: 0 micromolar, 7.5 micromolar, 15 micromolar, 30 micromolar, 60 micromolar, 120 micromolar which were diluted in complete media. On day 5, 5 micromolar Calcein-AM violet stain (λex, lambda(ex)=408 nm and λem, lambda(em)=450 nm) diluted in 250 microliters fresh serum-free media was added to the cells and incubated at 37° C. for 30 min. The viability of cells was assessed by performing a fluorescence well scan using the CLARIOStar well-plate reader. The measured fluorescence was normalized to the control to determine the percent viability.
To assess the coupled effects of genome editing and drug inhibition, the H1299 cells with a pCRISPR targeting RAF1 or a control sgRNA were transfected and 15 micromolar sorafenib tosylate was added on day 2. […]
Four conditions were tested by acquiring fluorescent measurements over 7 days to assess proliferation. […] All readings were taken in triplicate and error bars represent +/−1 s.d.

[4] = On-chip beta-glucosidase colorimetric assay, blue channel pixel intensity (image-based feedback system); assay type: biochemical, Thermobaculum terrenum
Procedure: The assay on-chip included three different solutions loaded onto the DMF device reservoirs. First, a unit droplet of cell lysate was dispensed and actuated to each of the four assay mixing areas (see FIG. 5 for DMF design) using a starting voltage of 230 VRMS at 15 kHz. The lysate was prepared from a colony of BL21(DE3) transformed with a plasmid containing beta-glucosidase (BGL) gene (see FIG. 6 and FIG. 7 for plasmid map and sequence (SEQ ID NO: 1) respectively) that was grown at 37° C. and induced at 0.4 O.D (˜1.75 h starting at 0.1 O.D). The assay started by the addition of a droplet containing substrate to a droplet of cell lysate. The substrate solution contained 50 mM sodium citrate at pH 7.0 and 4 mM 4-nitrophenyl beta-D-glucopyranoside (MUG). The reactions were incubated at different times (0, 40, 80, and 120 min) and arrested by the addition of a unit droplet of 0.3 M Glycine-NaOH on the assay areas on the device. Solutions contained 0.05% final concentration of F-68 Pluronics. […]
The typical model for analyzing kinetics of a beta-glucosidase enzyme is to use a chromogenic model substrate para-nitrophenyl-beta-glucoside (pNPG) that will produce glucose and para-nitrophenol upon hydrolysis (FIG. 14). The liberation of para-nitrophenol (pNP) gives a yellow color product which can be monitored by an image-based feedback system. […]

[5] = BGL off-chip assay in well plate, absorbance at 405 nm; assay type: biochemical, Thermobaculum terrenum; conditions: well-plate reader
Procedure: Referring to FIG. 16, there is shown off-chip enzymatic assay with an absorbance readout as a function of time were collected every 30 min. Nine reactions containing equal volume of lysate with enzyme and substrate were mixed in a well of a 96 well plate. At 30 min intervals, the reaction was arrested by glycine-NaOH solution and an absorbance measurement was acquired from the product formation of pNP which gave a yellow color. Each experiment was repeated three times, and error bars are +/−1 SD.
Protein expression. The plasmid containing the cloned BGL1 gene was first transformed into E. coli BL21(DE3) for recombinant expression. The transformed cells were inoculated overnight in a 5 mL pre-culture. The following day, the culture was diluted to OD 0.05 in a 100 mL starter culture and grown at 37° C. with 200 rpm shaking. Upon reaching OD 0.4, expression of the BGL1 gene was induced by addition of 1 mM IPTG and induction was carried out under the same growth conditions for 8 hours. […]
BGL off-chip assay. […] Absorbance at 405 nm was immediately acquired after stopping each reaction on a TECAN infinite M200 plate reader with the following settings: 9 nm bandwidth, single reads per well, 25 flashes per reading, and 0 ms of settle time. Reactions with absorbance units >4 were diluted and the final absorbance was calculated from the diluted sample. […]

CC(C)S[C@@H]1O[C@H](CO)[C@H](O)[C@H](O)[C@H]1O [IPTG, isopropyl beta-D-1-thiogalactopyranoside]
IPTG concentration at which protein production was constant (comparable to basal levels) [1]: < 30 µM
IPTG concentration giving highest protein production ([1]; induced at OD 0.4): above 200 micromolar

CNC(=O)c1cc(Oc2ccc(NC(=O)Nc3ccc(Cl)c(C(F)(F)F)c3)cc2)ccn1 [sorafenib, sorafenib tosylate]
IC50 ([2]; NCI-H1299, read-out: inhibitory sorafenib concentration achieving half-maximal viability level (IC50), on-chip, cells transfected with pCRISPR targeting RAF1, fitted sigmoid curve): 13.2 µM
IC50 ([2]; NCI-H1299, read-out: inhibitory sorafenib concentration achieving half-maximal viability level (IC50), on-chip, control (guide targeting eGFP), fitted sigmoid curve): 7.54 µM
sensitivity in the linear micromolar range ([2]; edited H1299 cells with CRISPR-mediated RAF1 targeting): 7 to 35 µM
fold reduction of IC50 with pCRISPR targeting RAF1 versus control ([2]; on-chip): ~1.8 fold
basal viability level [3]: ~25%

B1: beta-glucosidase: β-glucosidase (BGL) from Thermobaculum terrenum in BL21(DE3) cell lysate, plasmid pET_BGL1 of Example 1 (protein, listed as Thermobaculum terrenum)
chain: MKHLVTTLLFGLVFAAAVRAQSSRVDSLLAAMTLAEKISLLHGAIDPTGEAGAGYVPGVPRLGIPAMRLTDGPAGIRTRHPATALPAPVALAASFDPELAYRYGHVMGIEGRARRHEVLLSPMVNIVRVPEAGRNFETFSEDPLLSAEMVAAEVRGIQDAGMMATVKHYVANNFENDRMRVNVVVDERTLREIYLPGFEAAIKAGAAAVMCAYNRVNGPYACDNEMLLTDILRDEWGFEGWVMTDWFAGHSLESLVRGLDQEMPGYTIPFSSPDMPLAPAVFADSLLAAVESGRIDEAYVDRAVRRILVQMEQFGLLDGESTPPEINIEAHAAVAREVAEAGAVLLRNENQTLPLSERDLQHLVVIGPTATRPLIGGGGSSRVQPFRTTSTLAALQELAGPQAQIRYVPGIDLDGMPVPSSALRTPDGQPGLLRQGADGTTQVDAQLDFTGERALPPGSQWTWTGTLTAPTAGVYELKLQTAGGVGTLSIDGQPVLRTGMFFSDASLIPTADSLENATYRIELQAGQQLSLTVQISGQVPSLPFLPAGQNPVQVRLAWVTPERRAAFLEEAAEAARAAHAAIVFVYEEGTEGRDRETLALRPDQDALVEAVAAANPRTTVVMNVGAPTLMPWAERVGAILLMWYPGQEGGWATADVLLGRANPAGRLPVTFPRRAEDAPTASPERYPGVDLTARYDEGIFVGYRWYDAQQIEPLFPFGHGLSYTTFAYENLRVEPDGDGFVVRFVVRNTGDRAGSDVPQVYLGPPENPPVPMAVRQLVGFRRVTLAPGEAQEVTVRIDGRALSYWSVEDHAWVKATGRRTLYVGASARDLRLQTEIDVQ
first order rate constant kDMF [4]: 4.64e-05 s⁻¹
first order rate constant kPLATE [5]: 0.504 h⁻¹
